Where “and” joins values, the source holds several entries; their conditions need not be identical. Identical values can stand only once. Counter-ions that a name gives are not always drawn. Like-named read-outs stand apart in the source and are kept apart here.
What was measured:
[1] = paw-pressure test in rats with a lesion in the nucleus basalis magnocellularis (NBM); assay type: in vivo, rat; settings: 4 mg/kg i.p.
Excerpt: 3. […] In fact, as known, the magnocellular basal nucleus destruction causes the degeneration of most central cholinergic system.

rat paw-pressure test = assay type: in vivo
Experimental: (§1) The analgesic action was detected in mouse, rat, guinea pig and dog. The mouse was subjected to hot plate and writhing tests; the rat to tail-flick and paw-pressure tests; the guinea pig to paw-pressure test only; the dog to the test described by Vainio et al. [J. Vet. Pharmacol. Ther., 12, 225-231 (1989)] using an electric stimulation. Consequently, the claimed compounds were tested with pain being induced by stimuli of different nature: thermal (hot plate and tail flick), chemical (writhing by acetic acid), mechanical (paw pressure) and electrical (cutaneous stimulation).
(§2) As already mentioned, the claimed products were assayed also in rat by the paw-pressure and tail-flick tests.
(§3) Both tests were carried out with the max. doses not impairing the rats normal behaviour. […] The painful stimulus utilized in the paw-pressure test involved the animal consciousness to a much greater extent than the stimulus used in the tail-flick test, in fact, the type and anatomic localization of the latter mainly involved a spinal response.
(§4) Both tests on rats were carried out with the max. doses not altering the behaviour of the treated animals.

[2] = mouse acetic acid writhing test; assay type: in vivo; settings: for efficacy in writhing test, in words / number of writhes / Efficacy as analgesic (Morphine = 100) / percent inhibition: mouse; for Efficacy as analgesic (Morphine = 100) / percent inhibition: writhing; for ED50: mouse writhing
Experimental: as §1
The claimed molecules, chosen as examples, were also assayed in mice by the writhing test (Table 4). The test is meant to evaluate the products capability to prevent mice writhes ensuing abdominal pains caused by i.p. injection of a 0.6% aqueous solution of acetic acid.
Acetic acid solution = 0.6% v/v.

[3] = assay type: in vivo, mouse; settings: for ED50 compared with claimed compounds / analgesic efficacy / degree of analgesia compared with claimed compounds: mouse hot plate; for Efficacy as analgesic (Morphine = 100), AUC (Area Under Curve) / Efficacy as analgesic (Morphine = 100), M.E. (Maximum Analgesic Effect): in vivo; for ANALGESIC ACTIVITY (degree of analgesia, latency on hot plate): max. dose not affecting mice behaviour
Experimental: as §1
(§5) Potency, efficacy and toxicity of SM21, PG9 and SM32 in comparison with
(§6) four principal reference analgesic drugs tested in mouse. As analgesic

rat tail-flick test = assay type: in vivo
Experimental: as §1, §2, §3, §4
The test was performed using th

in vivo = settings: mouse
Excerpt: as §5, §6

[4] = mouse rota-rod test (16 r.p.m.)
Excerpt: All products tested to detect their antinociceptive activity had been previously tested by the rota-rod test to determine their maximum utilizable dose in analgesic tests. In fact, by this test it is possible to determine the highest dose of drug not impairing the normal performance of animals in a test that simultaneously evaluates motor coordination, equilibrium, resistance to fatigue, and muscle strength. This test is meant to evaluate the capability of mice to stay balanced on a rotating rod [cf. Vaught et al., Neuropharmacology, 24 (3) 211-216 (1985)].
The calculated doses were those used in the two analgesic tests on mice.

[5] = 25 mg/kg i.p., 15 min after treatment
[6] = 25 mg/kg i.p., 30 min after treatment
[7] = 25 mg/kg i.p., 45 min after treatment
[8] = mouse, 20 mg/kg i.p., 15 min after treatment
[9] = mouse, 20 mg/kg i.p., 30 min after treatment
[10] = mouse, 20 mg/kg i.p., 45 min after treatment
[11] = mouse, 20 mg/kg s.c., 15 min after treatment
[12] = mouse, 20 mg/kg s.c., 30 min after treatment
[13] = mouse, 20 mg/kg s.c., 45 min after treatment
[14] = 25 mg/kg s.c., 15 min after treatment
[15] = 25 mg/kg s.c., 30 min after treatment
[16] = 25 mg/kg s.c., 45 min after treatment
[17] = 15 mg/kg i.p., 15 min after treatment
[18] = 15 mg/kg i.p., 30 min after treatment
[19] = 15 mg/kg i.p., 45 min after treatment
[20] = 100 mg/kg i.p., 15 min after treatment
[21] = 100 mg/kg i.p., 30 min after treatment
[22] = 100 mg/kg i.p., 45 min after treatment

Compound `NCC(CC(=O)O)c1ccc(Cl)cc1` (stereo not shown) [Baclofen, reference compound] has a paw-pressure ([1]; lesioned (NBM) rats, 15 min after treatment) of 117.4 ± 6.4 g, a paw-pressure ([1]; lesioned (NBM) rats, 30 min after treatment) of 137.9 ± 4.8 g and a paw-pressure ([1]; lesioned (NBM) rats, 45 min after treatment) of 131.8 ± 5.7 g. The paw-pressure ([1]; sham rats, 15 min after treatment) was 108.7 ± 6.6 g, the paw-pressure ([1]; sham rats, 30 min after treatment) was 132.8 ± 5.9 g and the paw-pressure ([1]; sham rats, 45 min after treatment) was 124.7 ± 5.8 g.
In the case of `CN(C)CCCN1c2ccccc2CCc2ccc(Cl)cc21` [Clomipramine HCl, reference compound], the “activity in paw-pressure test, in words” value (rat paw-pressure test) is reported as “almost equivalent analgesia”, the paw-pressure (rat paw-pressure test; [5]) is reported as 85.0 ± 6.8 g and the paw-pressure (rat paw-pressure test; [6]) is reported as 99.0 ± 6.6 g. For the same compound, the paw-pressure (rat paw-pressure test; [7]) was 91.7 ± 7.4 g, the “efficacy in writhing test, in words” value [2] was “far less efficacious” and the number of writhes ([2]; 20 mg/kg s.c.) was 18.2 ± 2.1. For the same compound, the “Efficacy as analgesic (Morphine = 100)” value ([2]; 20 mg/kg s.c.) was 63, the percent inhibition ([2]; 20 mg/kg s.c.) was 46.8% and the ED50 ([2]; sc) was 9.7 mg/kg and 27.6 µmol/kg. The “ED50 compared with claimed compounds” value [3] was “equivalent to those of the claimed compounds”, the “analgesic efficacy / degree of analgesia compared with claimed compounds” value [3] was “much lower degree of analgesia” and the “Efficacy as analgesic (Morphine = 100), AUC (Area Under Curve)” value ([3]; mouse) was 17. The “Efficacy as analgesic (Morphine = 100), M.E. (Maximum Analgesic Effect)” value (shortened to “Efficacy … (Maximum Analgesic Effect)”) ([3]; mouse) was 19, the hot-plate latency [3, 8] was 24.8 ± 2.8 s and the hot-plate latency [3, 9] was 25.2 ± 2.2 s. It also gave a hot-plate latency [3, 10] of 23.2 ± 2.1 s, a hot-plate latency [3, 11] of 17.4 ± 1.1 s and a hot-plate latency [3, 12] of 19.3 ± 0.9 s. The hot-plate latency [3, 13] was 16.5 ± 0.8 s, the “activity in tail-flick test, in words” value (rat tail-flick test) was “inactive” and the tail-flick (rat tail-flick test; [5]) was 2.9 ± 0.2 s. For the same compound, the tail-flick (rat tail-flick test; [6]) was 2.6 ± 0.1 s, the tail-flick (rat tail-flick test; [7]) was 2.6 ± 0.2 s and the LD50 (in vivo; iv) was 44 mg/kg and 125 µmol/kg. The “rota-rod performance (number of falls in 30 s)” value (shortened to “rota-rod performance”) [4, 14] was 2.4 ± 0.5 falls in 30 s, the “rota-rod performance” value [4, 15] was 2.1 ± 0.6 falls in 30 s and the “rota-rod performance” value [4, 16] was 2.1 ± 0.6 falls in 30 s. The “rota-rod performance” value ([4]; 45 mg/kg s.c., 15 min after treatment) was 2.8 ± 0.4 falls in 30 s, the “rota-rod performance” value ([4]; 45 mg/kg s.c., 30 min after treatment) was 3.6 ± 0.4 falls in 30 s and the “rota-rod performance” value ([4]; 45 mg/kg s.c., 45 min after treatment) was 3.5 ± 0.6 falls in 30 s. For the same compound, the “rota-rod performance” value ([4]; 50 mg/kg s.c., 15 min after treatment) was 1.8 ± 0.4 falls in 30 s, the “rota-rod performance” value ([4]; 50 mg/kg s.c., 30 min after treatment) was 1.8 ± 0.4 falls in 30 s and the “rota-rod performance” value ([4]; 50 mg/kg s.c., 45 min after treatment) was 1.5 ± 0.4 falls in 30 s. For the same compound, the “rota-rod performance” value ([4]; 60 mg/kg s.c., 15 min after treatment) was 1.5 ± 0.4 falls in 30 s, the “rota-rod performance” value ([4]; 60 mg/kg s.c., 30 min after treatment) was 2.6 ± 0.3 falls in 30 s and the “rota-rod performance” value ([4]; 60 mg/kg s.c., 45 min after treatment) was 3.1 ± 0.5 falls in 30 s. It also gave an NOAEL ([4]; mouse, in vivo, sc) of 20.2 mg/kg.
For `CN(C)CCOC(c1ccccc1)c1ccccc1` [Diphenhydramine, reference compound], the “activity in paw-pressure test, in words” value (rat paw-pressure test) was “inactive”, the paw-pressure (rat paw-pressure test; [17]) was 72.6 ± 6.8 g and the paw-pressure (rat paw-pressure test; [18]) was 70.0 ± 5.4 g. The paw-pressure (rat paw-pressure test; [19]) was 68.0 ± 6.6 g, the “efficacy in writhing test, in words” value [2] was “far less efficacious” and the number of writhes ([2]; 20 mg/kg s.c.) was 24.6 ± 2.4. For the same compound, the “Efficacy as analgesic (Morphine = 100)” value ([2]; 20 mg/kg s.c.) was 38, the percent inhibition ([2]; 20 mg/kg s.c.) was 28.1% and the ED50 ([2]; sc) was 7.8 mg/kg and 30.5 µmol/kg. For the same compound, the “ED50 compared with claimed compounds” value [3] was “equivalent to those of the claimed compounds”, the “analgesic efficacy / degree of analgesia compared with claimed compounds” value [3] was “much lower degree of analgesia” and the “Efficacy … (Maximum Analgesic Effect)” value ([3]; mouse) was 43. It also gave a hot-plate latency [3, 8] of 21.6 ± 2.5 s, a hot-plate latency [3, 9] of 17.7 ± 1.6 s and a hot-plate latency [3, 10] of 17.1 ± 1.8 s. It also gave a hot-plate latency [3, 11] of 23.6 ± 2.6 s, a hot-plate latency [3, 12] of 18.0 ± 1.4 s and a hot-plate latency [3, 13] of 18.7 ± 2.1 s. The “activity in tail-flick test, in words” value (rat tail-flick test) was “inactive”, the tail-flick (rat tail-flick test; [17]) was 2.9 ± 0.2 s and the tail-flick (rat tail-flick test; [18]) was 2.5 ± 0.2 s. For the same compound, the tail-flick (rat tail-flick test; [19]) was 2.5 ± 0.1 s, the “rota-rod performance” value [4, 14] was 2.0 ± 0.5 falls in 30 s and the “rota-rod performance” value [4, 15] was 1.0 ± 0.3 falls in 30 s. The “rota-rod performance” value [4, 16] was 1.4 ± 0.4 falls in 30 s, the “rota-rod performance” value ([4]; 30 mg/kg s.c., 15 min after treatment) was 2.1 ± 0.4 falls in 30 s and the “rota-rod performance” value ([4]; 30 mg/kg s.c., 30 min after treatment) was 1.5 ± 0.3 falls in 30 s. For the same compound, the “rota-rod performance” value ([4]; 30 mg/kg s.c., 45 min after treatment) was 1.5 ± 0.4 falls in 30 s, the “rota-rod performance” value ([4]; 40 mg/kg s.c., 15 min after treatment) was 4.3 ± 0.4 falls in 30 s and the “rota-rod performance” value ([4]; 40 mg/kg s.c., 30 min after treatment) was 3.1 ± 0.4 falls in 30 s. The “rota-rod performance” value ([4]; 40 mg/kg s.c., 45 min after treatment) was 2.3 ± 0.4 falls in 30 s.
With `O=C(c1ccccc1)c1ccc2n1CCC2C(=O)O` (stereo not shown) [Ketorolac Trometamine] the “activity in paw-pressure test, in words” value (rat paw-pressure test) was “almost equivalent analgesia”, the paw-pressure (rat paw-pressure test; [20]) was 59.3 ± 5.6 g and the paw-pressure (rat paw-pressure test; [21]) was 97.4 ± 6.2 g. For the same compound, the paw-pressure (rat paw-pressure test; [22]) was 74.6 ± 5.8 g, the ED50 ([2]; ip) was 8.3 mg/kg and 22 µmol/kg and the “efficacy in writhing test, in words” value [2] was “higher than by morphine”. The number of writhes ([2]; 10 mg/kg i.p.) was 6.3 ± 1.4, the number of writhes ([2]; 175 mg/kg i.p.) was 0.3 ± 0.3 and the “Efficacy as analgesic (Morphine = 100)” value ([2]; 10 mg/kg i.p.) was 110. The percent inhibition ([2]; 10 mg/kg i.p.) was 81.6%, the “Efficacy as analgesic (Morphine = 100)” value ([2]; 175 mg/kg i.p.) was 133 and the percent inhibition ([2]; 175 mg/kg i.p.) was 99.1%. For the same compound, the “Efficacy as analgesic (Morphine = 100), AUC (Area Under Curve)” value ([3]; mouse) was 46, the “Efficacy … (Maximum Analgesic Effect)” value ([3]; mouse) was 55 and the hot-plate latency ([3]; mouse, 175 mg/kg i.p., 15 min after treatment) was 26.5 ± 3.4 s. The hot-plate latency ([3]; mouse, 175 mg/kg i.p., 30 min after treatment) was 19.6 ± 1.4 s, the hot-plate latency ([3]; mouse, 175 mg/kg i.p., 45 min after treatment) was 17.7 ± 1.5 s and the hot-plate latency ([3]; mouse, 175 mg/kg s.c., 15 min after treatment) was 16.3 ± 1.1 s. For the same compound, the hot-plate latency ([3]; mouse, 175 mg/kg s.c., 30 min after treatment) was 15.0 ± 1.2 s, the hot-plate latency ([3]; mouse, 175 mg/kg s.c., 45 min after treatment) was 15.1 ± 1.6 s and the “activity on hot plate, s.c. administration” value ([3]; mouse, s.c.) was “inactive”. The “activity in tail-flick test, in words” value (rat tail-flick test) was “inactive”, the tail-flick (rat tail-flick test; [20]) was 3.3 ± 0.2 s and the tail-flick (rat tail-flick test; [21]) was 3.2 ± 0.2 s. It also gave a tail-flick (rat tail-flick test; [22]) of 2.6 ± 0.3 s and an LD50 (in vivo; ip) of 1260 µmol/kg.
In the case of `CC(Nc1ccccc1)C(=O)OC1CC2CCC(C1)N2C` (stereo not shown) [SS29], the “ANALGESIC ACTIVITY (degree of analgesia, latency on hot plate)” value (“ANALGESIC ACTIVITY” below) [3] is reported as “+++ (Latency under or equal to 35" +++-)”.
With `CC(Oc1ccc(Cl)cc1)C(=O)N[C@H]1C[C@H]2CC[C@@H](C1)N2C` (stereo partly drawn) [SS-16, N-(3α-tropanyl)-2-(p-chlorophenoxy)-propionamide] the “ANALGESIC ACTIVITY” value [3] was “+ (Latency under or equal to 25" +-)”.
In the case of `CC(Sc1ccc(Cl)cc1)C(=O)O[C@H]1C[C@H]2CC[C@@H](C1)N2C` (stereo partly drawn) [SS-20, 3α-Tropanyl 2-(p-chlorophenylthio)propionate], the “ANALGESIC ACTIVITY” value [3] is reported as “+++ (Latency under or equal to 35" +++-)”.

— US5583142A, “Analgesic and nootropic drugs” (priority 1992, dated 1996)
